Results from patent US10251831B2, “Extract for treating wrinkles and/or fine lines” (Avon Products, Inc., priority 2009, dated 2019).

Columns and labels:
paxillin mRNA = test: Stimulation of paxillin mRNA in vitro (QuantiGene multiplex branched DNA assay); type: cell-based; conditions: normal human dermal fibroblasts, 24 hours treatment, normalized to GAPDH
Procedure: Normal human dermal fibroblasts (Cascade Biologics) were cultured in 96-well tissue culture treated plates, with 200 μl DMEM in 10% serum per well, and incubated for 24 hours at 37° C. and 10% CO2. In some cases, normal human epidermal keratinocytes (Cascade Biologics) were cultured in 200 μl EpiLife medium (Cascade Biologics) per well, and incubated overnight at 37° C. and 5% CO2.
Stock solutions of candidate paxillin stimulators (test materials) were made in appropriate solvents (e.g., DMSO, water, ethanol, a 50:50 ethanol:water mixture) to give weight % as indicated in Table 1 below. Cells were treated with test material or a respective vehicle control diluted in growth medium for 24 hours in a humidified 37° C. incubator with 10% CO2. After incubation, growth medium from each plate was removed and 100 μl of lysis buffer was added to the wells and placed in 37° C. incubator with 5% CO2 for 30 minutes. At the end of incubation, the cells were collected in freezer plates and placed in a −80° C. freezer until analysis.
Changes in mRNA for paxillin in cell lysates after treatment were analysed using QuantiGene® multiplex assay (Panomics Inc. CA) that employs a branched DNA technology. This technology is a hybridization-based method of target-specific RNA quantification that amplifies a signal(s) rather than target RNA, using labelled DNA probe. Probes for Paxillin gene (ID: NM_005953) were designed and synthesized. Paxillin probes, reference probes PPIB and GAPDH, along with a set of other probes were used in this multiplex assay.
The probes used include capture extenders (CE), label extenders (LE), and blockers (BL). As described above, this arrangement provides a target sequence that is double-stranded, thereby improving hybridization efficiency. The CE, LE, and BL sequences used for identifying paxillin mRNA corresponded to SEQ ID NOS: 1, 2, and 3, respectively.
Appropriately diluted cell lysates were hybridized with the paxillin and reference probes in a hybridization plate in a Vortemp shaking incubator, for 18-22 hours at 54° C.±1° C. and 600 rpm. Once the paxillin and the reference mRNAs were captured, the unbound material was filtered using filter plates and washed three times with a wash buffer. Signal amplification was performed using two steps—first a 2.0 Pre-amplifier (Panomics Inc.) was added and incubated for 1 hour in the Vortemp shaking incubator at 54° C.±1° C. and 600 rpm. Unbound Pre-amplifier was filtered using a Filter plate and washed twice. Next the samples were exposed to 2.0 Amplifier (Panomics Inc.) and incubated, filtered, and washed as with the Pre-amplifier. Next the samples were hybridized with biotinylated labelled probe, and incubated for one hour at 54° C.±1° C. and 600 rpm. Samples were then filtered and washed as above. Finally, Streptavidin-conjugated Phycoerythrin (SAPE) working reagent was added and the mixture shaken for 30 minutes at room temperature covered in aluminium foil. Unbound SAPE was filtered and washed twice. SAPE wash buffer was added to each well with shaking for 2-5 minutes, and then readings were taken immediately using a Luminex machine.
Values for amounts of paxillin mRNA were determined along with those for the reference genes PPIB and GAPDH. Values were normalized to GAPDH to determine changes in paxillin mRNA after treatment. Percent increase in mRNA for paxillin was calculated in each case by comparing values after treatment with a candidate paxillin stimulator to values after treatment with the vehicle control.

Paxillin protein = test: Stimulation of paxillin protein in human skin biopsy (topical patch, immunohistochemistry); type: in vivo
Excerpt: Compositions comprising a paxillin stimulator were each tested on 21 subject volunteers. For each paxillin stimulator, the composition was topically applied via a patch attached to the back of a randomly selected forearm of each of 21 volunteers, and a vehicle control was similarly applied to the back of the volunteer's forearm. After 3 weeks, the human skin biopsies were taken from the treated skin of the various volunteers and subjected to immunohistochemisty preparation. […] Elevated protein level was determined for each treated subject by comparing to the vehicle control.

## Oc1ccc(C2COc3cc(O)ccc3C2)cc1 (stereo not drawn) [Equol, 4′,7-isoflavandiol]
Paxillin mRNA; Weight % 0.0001%
  % increase in Paxillin (relative to control): 61.46%
Paxillin mRNA; Weight % 0.001%
  % increase in Paxillin (relative to control): 220.36%

## O=C(c1ccccc1)N1C[C@@H]2C[C@H](C1)c1ccc(-c3ccco3)c(=O)n1C2 [Compound of Formula V]
Paxillin mRNA; Weight % 0.00005%
  % increase in Paxillin (relative to control): 28.52%

## CCCCCCCC/C=C\CCCCCCCC(=O)OC/C=C(C)/C=C/C=C(C)/C=C/C1=C(C)CCCC1(C)C [Retinyl oleate]
Paxillin mRNA; Weight % 0.01%
  % increase in Paxillin (relative to control): 60.21%

## Cc1coc2c1C(=O)C(=O)c1c-2ccc2c1CCCC2(C)C [Tanshinone IIA, 1,6,6-trimethyl-8,9-dihydro-7H-naphtho[1,2-g][1]benzofuran-10,11-dione]
Paxillin mRNA; Weight % 0.025%
  % increase in Paxillin (relative to control): 188.31%

## Cc1ccc(C(C)C)cc1O [Carvacrol]
Paxillin mRNA; Weight % 0.0001%
  % increase in Paxillin (relative to control): 39.50%

## CCCCC=CC=CC=CCCCCCCCC(=O)OCC=C(C)C=CC=C(C)C=CC1=C(C)CCCC1(C)C [Retinyl punicate]
Paxillin mRNA; Weight % 0.01%
  % increase in Paxillin (relative to control): 69.68%

## COc1ccc2cc1Oc1ccc(cc1)C[C@H]1c3cc(c(OC)cc3CCN1C)Oc1c(OC)c(OC)cc3c1[C@H](C2)N(C)CC3 [Tetrandine, 6,6′,7,12-Tetramethoxy-2,2′-dimethyl-berbaman]
Paxillin mRNA; Weight % 0.001%
  % increase in Paxillin (relative to control): 84.31%

## CC/C=C\CCCCCO [cis-6-Nonenol, Cis-6-Nonenol]
Paxillin mRNA; Weight % 0.001%
  % increase in Paxillin (relative to control): 60.84%
Paxillin protein; percentage of subjects with elevated paxillin protein level vs vehicle control, topical patch on forearm, 3 weeks
  % Subjects Improved: 71.4%
Paxillin protein; representative photographs, compared to treatment with a control
  paxillin protein in human skin biopsies (antibody stain, FIG. 1): increased paxillin protein
Paxillin protein; subjects with elevated paxillin protein level vs vehicle control, topical patch on forearm, 3 weeks, 21 subjects
  No. Showing Improvement: 15
